Literature values, collected in patent US12263155B2, “Combinations of monoamine oxidase inhibitors and serotonin receptor agonists and their therapeutic use” (Remedi, Inc., priority 2022, dated 2025).
Read-outs that look alike come from different tables or passages of the source.

What was measured:
platelet MAO-B = biological target: T1, platelet MAO-B (Homo sapiens, UniProt P27338); settings: cited from earlier work
T1 construct: host or cells: human platelets
T1 sequence (P27338 1-520): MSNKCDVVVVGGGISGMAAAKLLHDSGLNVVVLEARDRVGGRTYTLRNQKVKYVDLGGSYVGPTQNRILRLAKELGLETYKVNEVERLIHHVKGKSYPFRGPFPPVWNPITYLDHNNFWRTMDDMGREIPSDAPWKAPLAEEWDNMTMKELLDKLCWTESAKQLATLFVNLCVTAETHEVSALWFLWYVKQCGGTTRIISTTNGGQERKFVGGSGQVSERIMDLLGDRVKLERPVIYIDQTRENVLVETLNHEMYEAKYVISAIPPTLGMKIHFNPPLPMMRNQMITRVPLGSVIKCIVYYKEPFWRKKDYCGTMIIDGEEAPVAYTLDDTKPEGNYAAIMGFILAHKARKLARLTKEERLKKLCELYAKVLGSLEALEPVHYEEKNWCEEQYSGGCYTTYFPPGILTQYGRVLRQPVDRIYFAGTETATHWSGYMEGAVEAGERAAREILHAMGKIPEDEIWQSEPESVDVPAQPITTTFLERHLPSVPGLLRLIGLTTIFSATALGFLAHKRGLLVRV

[1] = in vivo; cited from earlier work

Row | SMILES | inhibition of platelet MAO-B (platelet MAO-B; 450 mg dose) | inhibition of platelet MAO-B (platelet MAO-B; human subjects, single 100 mg dose) | apparent volume of distribution [1]
1 | O=C(NCCN1CCOCC1)c1ccc(Cl)cc1 [moclobemide] | 32% | 27% | –
2 | CN(C)CCc1c[nH]c2ccccc12 [DMT, N,N-dimethyltryptamine] | – | – | 36 to 55 L/kg
